Assay results taken from patent publication US9409952B2, “Peptide-compound cyclization method” (Chugai Seiyaku Kabushiki Kaisha, priority 2011, dated 2016).
Starred links: 1 amine or outer side, 2 acyl side, 3 side chain; linkers in the order of their positions; H or OH if unused. Positions of bridges follow the written chain, without caps; N, C: chain ends. Non-standard residues stand in square brackets, D forms with d. Residues, ends and D or L forms follow the SMILES beside them. ξ: configuration not given here. *: point of attachment. Cys(O)(CH2CO) = O=C([C@H](C[S+]([O-])CC(=O)[*:3])N[*:1])[*:2]; NMeF = CN[C@@H](Cc1ccccc1)C(=O)O; NMeI = CC[C@H](C)[C@H](NC)C(=O)O; NMeL = CN[C@@H](CC(C)C)C(=O)O; NMeA = CN[C@@H](C)C(=O)O; Piperidide = C1CCN(*)CC1; {Puro} = puromycin; ξC = NC(CS)C(=O)O; Sar = CNCC(=O)O; tBu = CC(C)(C)*

Key:
[1] = 2 h, pH 7.1
[2] = Metabolic stability in mouse small intestinal microsome; type: in vitro ADME; settings: for Intestinal Microsome CLg, int Mouse: Table 8, mouse; for oxidative metabolic rate relative to the parent thioether, small intestinal microsomes: compared with Compound P-112
Description: (§1) The obtained compound was metabolically reacted at a concentration of 2 uM with mouse serum (male/female mixed, Valley Biomedical, USA) (adjusted to pH 7.4 with 33.5 mM HEPES buffer) for two hours. Deproteinization treatment with acetonitrile was provided over time, the amount of the remaining unchanged compound was analyzed using LC/MS, and the metabolic half-life (t1/2) was calculated. A microsome solution prepared at 0.5 mg protein/mL from mouse hepatic microsome and small intestinal microsome (male, XENOTECH, USA) using 100 mM phosphate buffer (pH 7.4) was metabolically reacted with the compound at a concentration of 1 uM for 30 minutes in the presence or absence of NADPH. Deproteinization treatment with acetonitrile was provided over time, the amount of the remaining unchanged compound was analyzed using LC/MS, and the hepatic-intrinsic clearance (CLh, int) and the small intestinal-intrinsic clearance (CLg, int) were calculated (Table 7). Such peptides were sufficiently slowly metabolized by hydrolysis with peptidases or the like in mouse sera and microsomes, contrary to peptides composed of natural amino acids having low lipophilicity.
(§2) Metabolic stability tests were carried out in the same manner as shown in 2-1.

[3] = Metabolic stability in mouse hepatic microsome; type: in vitro ADME; settings: for Hepatic Microsome CLh, int (Mouse) In the absence of NADPH: without NADPH; for microsomal CLint at 1 uM: male, liver microsomes, pH 7.4; for Mouse Hepatic Microsome CLh, int: Table 9, thioether versus sulfoxide
Description: as §1, §2

[4] = Metabolic stability in human hepatic microsome; type: in vitro ADME; settings: for microsomal CLint at 1 uM: pH 7.4, Hepatic Microsome CLhint Human
[5] = Serum stability test in mouse serum; type: in vitro ADME; settings: both sexes, pH 7.4, two hours, read-out: Serum stability t1/2 (Mouse)
Description: as §1

[6] = 0.5 mg protein/mL, 1 uM, 30 minutes
[7] = mouse, 0.5 mg protein/mL, 1 uM, 30 minutes, with NADPH, read-out: Hepatic Microsome CLh, int (Mouse) In the presence of NADPH

| Molecule | Intestinal Microsome CLg, int Mouse [2] [ul/min/mg Protein] | Hepatic Microsome CLh, int (Mouse) In the absence of NADPH [3, 6] [ul/min/mg Protein] | Hepatic Microsome CLhint Mouse ([3]; Table 8, mouse) [ul/min/mg Protein] | microsomal CLint at 1 uM [3, 7] [µL/min/mg] | microsomal CLint at 1 uM ([4]; human, microsomes) [µL/min/mg] | half-life at 2 uM [5] [h] | Mouse Hepatic Microsome CLh, int [3] [ul/min/mg Protein] | also measured |
| --- | --- | --- | --- | --- | --- | --- | --- | --- |
| 5′-AGCUUAGUCA-puromycin-3′ (3' {Puro}, sugars by position and backbone not given here) [Compound RP-1] | – | – | – | – | – | – | – | amount of remaining RNA compound under desulfurization reaction condition [1]: not changed |
| CC(C)C[C@H]1C(=O)N[C@@H](COC(C)(C)C)C(=O)N[C@H](C(=O)N2CCCCC2)CSCC(=O)N(C)[C@@H](C)C(=O)N(C)[C@@H](Cc2ccccc2)C(=O)N(C)[C@@H](CC(C)C)C(=O)N[C@@H]([C@@H](C)O)C(=O)N(C)CC(=O)N1C [Compound P-102, Ac*-MeAla-MePhe-MeLeu-Thr-MeGly-MeLeu-Ser(tBu)-Cys*-piperidine] ({CH2CO}-[NMeA][NMeF][NMeL]T[Sar][NMeL]S(tBu)C-Piperidide; thioether N-8) | 79.0 | 0 | 55.1 | 55.1 | 124 | > 60 | – | Hepatic microsome CLhint (Human) In the absence of NADPH [4]: 3 ul/min/mg Protein; Hepatic microsome CLhint (Human) In the presence of NADPH [4]: 124 ul/min/mg Protein |
| CC[C@H](C)[C@H]1C(=O)N[C@H](C(=O)N2CCCCC2)CSCC(=O)N(C)[C@@H](Cc2ccccc2)C(=O)N(C)[C@@H](CC(C)C)C(=O)N[C@@H]([C@@H](C)O)C(=O)N(C)CC(=O)N(C)[C@@H](CC(C)C)C(=O)N[C@@H](COC(C)(C)C)C(=O)N1C [Compound P-103, Ac*-MePhe-MeLeu-Thr-MeGly-MeLeu-Ser(tBu)-MeIle-Cys*-piperidine] ({CH2CO}-[NMeF][NMeL]T[Sar][NMeL]S(tBu)[NMeI]C-Piperidide; thioether N-8) | 66.3 | 11.1 | 63.0 | 63 | 221 | > 60 | 63 | Hepatic microsome CLhint (Human) In the absence of NADPH [4]: 3 ul/min/mg Protein; Hepatic microsome CLhint (Human) In the presence of NADPH [4]: 221 ul/min/mg Protein |
| CC[C@H](C)[C@H]1C(=O)N[C@H](C(=O)N2CCCCC2)CSCC(=O)N[C@@H](Cc2ccccc2)C(=O)N(C)[C@@H](CC(C)C)C(=O)N[C@@H]([C@@H](C)O)C(=O)N(C)CC(=O)N(C)[C@@H](CC(C)C)C(=O)N[C@@H](COC(C)(C)C)C(=O)N1C [Compound P-107, Ac*-Phe-MeLeu-Thr-MeGly-MeLeu-Ser(tBu)-MeIle-Cys*-piperidine] ({CH2CO}-F[NMeL]T[Sar][NMeL]S(tBu)[NMeI]C-Piperidide; thioether N-8) | – | 10.1 | – | 111 | – | > 60 | – | – |
| CC(C)C[C@H]1C(=O)N[C@@H](COC(C)(C)C)C(=O)N[C@H](C(=O)N2CCCCC2)CSCC(=O)N(C)[C@@H](Cc2ccccc2)C(=O)N(C)[C@@H](C)C(=O)N(C)[C@@H](Cc2ccccc2)C(=O)N(C)[C@@H](CC(C)C)C(=O)N[C@@H]([C@@H](C)O)C(=O)N(C)CC(=O)N1C [Compound P-108, Ac*-MePhe-MeAla-MePhe-MeLeu-Thr-MeGly-MeLeu-Ser(tBu)-Cys*-piperidine] ({CH2CO}-[NMeF][NMeA][NMeF][NMeL]T[Sar][NMeL]S(tBu)C-Piperidide; thioether N-9) | – | 5.2 | – | 72.3 | – | > 60 | – | – |
| CC[C@H](C)[C@H]1C(=O)N[C@H](C(=O)N2CCCCC2)CSCC(=O)N(C)[C@@H](C)C(=O)N(C)[C@@H](Cc2ccccc2)C(=O)N(C)[C@@H](CC(C)C)C(=O)N[C@@H]([C@@H](C)O)C(=O)N(C)CC(=O)N(C)[C@@H](CC(C)C)C(=O)N[C@@H](COC(C)(C)C)C(=O)N1C [Compound P-109, Ac*-MeAla-MePhe-MeLeu-Thr-MeGly-MeLeu-Ser(tBu)-MeIle-Cys*-piperidine] ({CH2CO}-[NMeA][NMeF][NMeL]T[Sar][NMeL]S(tBu)[NMeI]C-Piperidide; thioether N-9) | 45.8 | 10.3 | 57.4 | 57.4 | 158 | > 60 | – | Hepatic microsome CLhint (Human) In the absence of NADPH [4]: 11 ul/min/mg Protein; Hepatic microsome CLhint (Human) In the presence of NADPH [4]: 158 ul/min/mg Protein |
| CC(C)C[C@H]1C(=O)N[C@@H](COC(C)(C)C)C(=O)N[C@H](C(=O)N2CCCCC2)CSCC(=O)N(C)[C@@H](Cc2ccccc2)C(=O)N(C)[C@@H](C)C(=O)N[C@@H](Cc2ccccc2)C(=O)N(C)[C@@H](CC(C)C)C(=O)N[C@@H]([C@@H](C)O)C(=O)N(C)CC(=O)N1C [Compound P-110, Ac*-MePhe-MeAla-Phe-MeLeu-Thr-MeGly-MeLeu-Ser(tBu)-Cys*-piperidine] ({CH2CO}-[NMeF][NMeA]F[NMeL]T[Sar][NMeL]S(tBu)C-Piperidide; thioether N-9) | – | 6.1 | – | 163 | – | > 60 | – | – |
| CC[C@H](C)[C@H]1C(=O)N[C@H](C(=O)N2CCCCC2)CSCC(=O)N(C)[C@@H](C)C(=O)N[C@@H](Cc2ccccc2)C(=O)N(C)[C@@H](CC(C)C)C(=O)N[C@@H]([C@@H](C)O)C(=O)N(C)CC(=O)N(C)[C@@H](CC(C)C)C(=O)N[C@@H](COC(C)(C)C)C(=O)N1C [Compound P-111, Ac*-MeAla-Phe-MeLeu-Thr-MeGly-MeLeu-Ser(tBu)-MeIle-Cys*-piperidine] ({CH2CO}-[NMeA]F[NMeL]T[Sar][NMeL]S(tBu)[NMeI]C-Piperidide; thioether N-9) | – | 0 | – | 76.4 | – | > 60 | 76.4 | – |
| CC[C@H](C)[C@H]1C(=O)NC(C(=O)N2CCCCC2)CSCC(=O)N(C)[C@@H](Cc2ccccc2)C(=O)N(C)[C@@H](C)C(=O)N(C)[C@@H](Cc2ccccc2)C(=O)N(C)[C@@H](CC(C)C)C(=O)N[C@@H]([C@@H](C)O)C(=O)N(C)CC(=O)N(C)[C@@H](CC(C)C)C(=O)N[C@@H](COC(C)(C)C)C(=O)N1C (stereo partly drawn) [Compound P-112, Ac*-MePhe-MeAla-MePhe-MeLeu-Thr-MeGly-MeLeu-Ser(tBu)-MeIle-Cys*-piperidine] ({CH2CO}-[NMeF][NMeA][NMeF][NMeL]T[Sar][NMeL]S(tBu)[NMeI][ξC]-Piperidide; thioether N-10) | 25.9 | 17.9 | 30.4 | 30.4 | 118 | > 60 | 30.4 | – |
| CC[C@H](C)[C@H]1C(=O)N[C@H](C(=O)N2CCCCC2)C[S+]([O-])CC(=O)N(C)[C@@H](C)C(=O)N(C)[C@@H](Cc2ccccc2)C(=O)N(C)[C@@H](CC(C)C)C(=O)N[C@@H]([C@@H](C)O)C(=O)N(C)CC(=O)N(C)[C@@H](CC(C)C)C(=O)N[C@@H](COC(C)(C)C)C(=O)N1C (stereo partly drawn) [Compound P-114, (5S,8S,11S,14S,20S,23S,26S,29R)-8-benzyl-23-(tert-butoxymethyl)-26-((S)-sec-butyl)-14-((R)-1-hydroxyethyl)-11,20-diisobutyl-4,5,7,10,16,19,25-heptamethyl-29-(piperidine-1-carbonyl)-1-thia-4,7,10,13,16,19,22,25,28-nonaazacyclotriacontane-3,6,9,12,15,18,21,24,27-nonone 1-oxide] ([NMeA][NMeF][NMeL]T[Sar][NMeL]S(tBu)[NMeI][Cys(O)(CH2CO)]-Piperidide; lactam N-9) | 9.1 | – | – | – | 35.3 | – | – | oxidative metabolic rate relative to the parent thioether, small intestinal microsomes [2]: 0.2 times; oxidative metabolic rate relative to the parent thioether, mouse hepatic microsomes ([3]; compared with Compound P-112): 0.6 times; microsomal CLint at 1 uM ([3]; Table 8, mouse, read-out: Hepatic Microsome CLhint Mouse): 33.7 µL/min/mg; oxidative metabolic rate relative to the parent thioether, human hepatic microsomes [4]: about 0.3 times |
| CC[C@H](C)[C@H]1C(=O)N[C@H](C(=O)N2CCCCC2)CS(=O)(=O)CC(=O)N(C)[C@@H](C)C(=O)N(C)[C@@H](Cc2ccccc2)C(=O)N(C)[C@@H](CC(C)C)C(=O)N[C@@H]([C@@H](C)O)C(=O)N(C)CC(=O)N(C)[C@@H](CC(C)C)C(=O)N[C@@H](COC(C)(C)C)C(=O)N1C [Compound P-115, (5S,8S,11S,14S,20S,23S,26S,29R)-8-benzyl-23-(tert-butoxymethyl)-26-((S)-sec-butyl)-14-((R)-1-hydroxyethyl)-11,20-diisobutyl-4,5,7,10,16,19,25-heptamethyl-29-(piperidine-1-carbonyl)-1-thia-4,7,10,13,16,19,22,25,28-nonaazacyclotriacontane-3,6,9,12,15,18,21,24,27-nonone 1,1-dioxide] | 21.8 | – | 42.1 | – | – | – | 12.1 | oxidative metabolic rate relative to the parent thioether, small intestinal microsomes [2]: about 0.5 times; Hepatic Microsome CLhint Human ([4]; human, microsomes, 1 uM, pH 7.4): 61.6 ul/min/mg Protein |
